{"source": "ChEMBL document CHEMBL1201862", "about": "“PubChem BioAssay data set” (2004)", "experiment_in_all_cases": "DTP human tumour cell line panel, 48 h", "key": {"SK-MEL-28": {"system": "SK-MEL-28"}, "HOP-62": {"system": "HOP-62"}, "NCI/ADR-RES": {"system": "NCI/ADR-RES"}, "A549": {"system": "A549"}, "CCRF-CEM": {"system": "CCRF-CEM"}, "COLO 205": {"system": "COLO 205"}, "MDA-N": {"system": "MDA-N"}, "UACC-257": {"system": "UACC-257"}, "MOLT-4": {"system": "MOLT-4"}, "OVCAR-3": {"system": "OVCAR-3"}, "OVCAR-8": {"system": "OVCAR-8"}, "SK-OV-3": {"system": "SK-OV-3"}, "NCI-H226": {"system": "NCI-H226"}, "SK-MEL-2": {"system": "SK-MEL-2"}, "SNB-19": {"system": "SNB-19"}, "HT-29": {"system": "HT-29"}, "OVCAR-4": {"system": "OVCAR-4"}, "SW-620": {"system": "SW-620"}, "U-251": {"system": "U-251"}, "MCF7": {"system": "MCF7"}, "ACHN": {"system": "ACHN"}, "A498": {"system": "A498"}, "NCI-H23": {"system": "NCI-H23"}, "MDA-MB-231": {"system": "MDA-MB-231"}, "HCC 2998": {"system": "HCC 2998"}, "T47D": {"system": "T47D"}, "HCT-116": {"system": "HCT-116"}, "NCI-H460": {"system": "NCI-H460"}, "PC-3": {"system": "PC-3"}, "SF-295": {"system": "SF-295"}, "M14": {"system": "M14"}, "DU-145": {"system": "DU-145"}, "K562": {"system": "K562"}, "CAKI-1": {"system": "CAKI-1"}, "SNB-75": {"system": "SNB-75"}, "Hs-578T": {"system": "Hs-578T"}, "HL-60": {"system": "HL-60"}, "MDA-MB-435": {"system": "MDA-MB-435"}, "OVCAR-5": {"system": "OVCAR-5"}, "UO-31": {"system": "UO-31"}, "NCI-H522": {"system": "NCI-H522"}, "RPMI-8226": {"system": "RPMI-8226"}, "SK-MEL-5": {"system": "SK-MEL-5"}, "TK-10": {"system": "TK-10"}, "IGROV-1": {"system": "IGROV-1"}, "LOX IMVI": {"system": "LOX IMVI"}, "HOP-92": {"system": "HOP-92"}, "SN12C": {"system": "SN12C"}, "HCT-15": {"system": "HCT-15"}, "SR": {"system": "SR"}}, "note": "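Exposure lasted 48 hours, with cells grown in 96-well plates and compounds tested at five concentrations. At the GI50, growth is halved.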 Calls of active or inactive are those of the source. Rule as the data show it: active = GI50 up to about 1.1 µM and inactive = higher."}
{"smiles": "CCOP(=O)(CN=C(c1ccccc1)c1ccccc1)OCC", "values": [{"measurement": "GI50", "setting": "SK-MEL-28", "result": "> 100 µM (inactive)"}, {"measurement": "GI50", "setting": "HOP-62", "result": "> 100 µM (inactive)"}, {"measurement": "GI50", "setting": "NCI/ADR-RES", "result": "> 100 µM (inactive)"}, {"measurement": "GI50", "setting": "A549", "result": "> 100 µM (inactive)"}, {"measurement": "GI50", "setting": "CCRF-CEM", "result": "> 100 µM (inactive)"}, {"measurement": "GI50", "setting": "COLO 205", "result": "> 100 µM (inactive)"}, {"measurement": "GI50", "setting": "MDA-N", "result": "> 100 µM (inactive)"}, {"measurement": "GI50", "setting": "UACC-257", "result": "> 100 µM (inactive)"}, {"measurement": "GI50", "setting": "MOLT-4", "result": "> 100 µM (inactive)"}, {"measurement": "GI50", "setting": "OVCAR-3", "result": "63.2 µM (inactive)"}, {"measurement": "GI50", "setting": "OVCAR-8", "result": "> 100 µM (inactive)"}, {"measurement": "GI50", "setting": "SK-OV-3", "result": "> 100 µM (inactive)"}, {"measurement": "GI50", "setting": "NCI-H226", "result": "> 100 µM (inactive)"}, {"measurement": "GI50", "setting": "SK-MEL-2", "result": "> 100 µM (inactive)"}, {"measurement": "GI50", "setting": "SNB-19", "result": "> 100 µM (inactive)"}, {"measurement": "GI50", "setting": "HT-29", "result": "> 100 µM (inactive)"}, {"measurement": "GI50", "setting": "OVCAR-4", "result": "> 100 µM (inactive)"}, {"measurement": "GI50", "setting": "SW-620", "result": "> 100 µM (inactive)"}, {"measurement": "GI50", "setting": "U-251", "result": "> 100 µM (inactive)"}, {"measurement": "GI50", "setting": "MCF7", "result": "> 100 µM (inactive)"}, {"measurement": "GI50", "setting": "ACHN", "result": "> 100 µM (inactive)"}, {"measurement": "GI50", "setting": "A498", "result": "73.8 µM (inactive)"}, {"measurement": "GI50", "setting": "NCI-H23", "result": "> 100 µM (inactive)"}, {"measurement": "GI50", "setting": "MDA-MB-231", "result": "> 100 µM (inactive)"}, {"measurement": "GI50", "setting": "HCC 2998", "result": "> 100 µM (inactive)"}, {"measurement": "GI50", "setting": "T47D", "result": "86.7 µM (inactive)"}, {"measurement": "GI50", "setting": "HCT-116", "result": "> 100 µM (inactive)"}, {"measurement": "GI50", "setting": "NCI-H460", "result": "> 100 µM (inactive)"}, {"measurement": "GI50", "setting": "PC-3", "result": "> 100 µM (inactive)"}, {"measurement": "GI50", "setting": "SF-295", "result": "> 100 µM (inactive)"}, {"measurement": "GI50", "setting": "M14", "result": "> 100 µM (inactive)"}, {"measurement": "GI50", "setting": "DU-145", "result": "> 100 µM (inactive)"}, {"measurement": "GI50", "setting": "K562", "result": "> 100 µM (inactive)"}, {"measurement": "GI50", "setting": "CAKI-1", "result": "> 100 µM (inactive)"}, {"measurement": "GI50", "setting": "SNB-75", "result": "> 100 µM (inactive)"}, {"measurement": "GI50", "setting": "Hs-578T", "result": "> 100 µM (inactive)"}, {"measurement": "GI50", "setting": "HL-60", "result": "87.1 µM (inactive)"}, {"measurement": "GI50", "setting": "MDA-MB-435", "result": "> 100 µM (inactive)"}, {"measurement": "GI50", "setting": "OVCAR-5", "result": "> 100 µM (inactive)"}, {"measurement": "GI50", "setting": "UO-31", "result": "> 100 µM (inactive)"}, {"measurement": "GI50", "setting": "NCI-H522", "result": "> 100 µM (inactive)"}, {"measurement": "GI50", "setting": "RPMI-8226", "result": "> 100 µM (inactive)"}, {"measurement": "GI50", "setting": "SK-MEL-5", "result": "> 100 µM (inactive)"}, {"measurement": "GI50", "setting": "TK-10", "result": "> 100 µM (inactive)"}, {"measurement": "GI50", "setting": "IGROV-1", "result": "> 100 µM (inactive)"}, {"measurement": "GI50", "setting": "LOX IMVI", "result": "> 100 µM (inactive)"}, {"measurement": "GI50", "setting": "HOP-92", "result": "> 100 µM (inactive)"}, {"measurement": "GI50", "setting": "SN12C", "result": "> 100 µM (inactive)"}, {"measurement": "GI50", "setting": "HCT-15", "result": "> 100", "unit": "µM"}, {"measurement": "GI50", "setting": "SR", "result": "> 100 µM (inactive)"}]}
